Drawing on patent publication US20140363530A1, “COMPOSITION COMPRISING THE EXTRACT OF PINE TREE LEAF OR THE COMPOUNDS ISOLATED THEREFROM FOR THE PREVENTION AND TREATMENT OF CANCER DISEASE BY INHIBITING HPV VIRUS AND THE USES THEREBY” (priority 2012, published 2014), this text covers inhibition and IC50 for three compounds.

Converted amounts (≈) assume the structure as drawn. Read-outs that look alike come from different tables or passages of the source.

The test system of assay [1] is HPV16 PVs. The assay is described as follows: Virus inhibition test (in vitro), SEAP activity of 293TT cells infected with HPV pseudovirion. The following applies: Human papillomavirus 16, read-out: inhibitory activity from HPV16 PVs. Type of assay: cell-based. The protocol: Prior to in vitro antiviral assay, 5×10^3 of 293TT cell was seeded on 96-well plate and incubated at 37° C. for 16 hours in 5% CO2 atmosphere. The culture media was removed and each extract was diluted to the concentration of 100 μg/ml or 50 μg/ml to distribute into each cell at the dose of 100 μl/cell. After treating with the extract for 16 hours, the culture media was removed and the cell was washed with PBS twice. The cell was infected by 106RLU/ml of HPV PVs at the dose of 100 μl/cell and incubated for 48 hours at 37° C. in 5% CO2 atmosphere. To determine the viral activity, the supernatant of the cell culture was used for determine the activity of secreted alkaline phosphatase (SEAP) using by Great EscAPE™ SEAP Chemiluminescence Kit (631738, Clontech, CA, USA). To determine the SEAP activity, relative light units (RLU) value was obtained using by Luminescence coulter (Micro beta triLux 1450, PerkinElmer, CT, USA) and the RLU values of the cell treated with the extract and untreated with the extract, were compared with each other. The decrease of SEAP activity was regarded as the inhibition effect against HPV PVs.
To determine the inhibitory effect on luciferase-comprising HPV virus contagion of the test samples prepared in Examples, following test was performed according to the method disclosed in the literature (Shaneyfelt et al., Virology Journal, 3:68, 2006, 1-11; Roden et al., J. Virol., 70, 1996, 5875-5883; Unckell et al., J. Virol., 71, 1997, 2934-2939; Touze et al., Nucleic Acids Research, 26, 1998, 1317-1323; Selinka et al., J. Virol., 77, 2003, 12961-12967; Klasse et al., Journal of General Virology, 83, 2002, 2091-2108)
5×10^3293TT cell was seeded on 96-well plate and incubate for 16 hours. 50 μg of test sample was mixed with the culture media in the concentration of 100 ug/ml and incubated for 16 hours. The media was washed with 100 μl of PBS twice and the cell was infected with 10^6RLU/ml of HPV pseudovirion at the dose of 100 μl/cell to incubate at 37° C., for 48 hours in 5% CO2 atmosphere.
5× lysis buffer in Great EscAPE™ SEAP Chemiluminescence Kit (631738, Clontech, CA, USA) was made to 1× and both of 45 μl of 1× lysis buffer and 15 μl of cell culture medium were added to 96-well plate (3912, Costar, NY, USA). 60 μl of the substrate in Great EscAPE™ SEAP Chemiluminescence kit was added thereto and the relative light units (RLU) value was obtained using by Luminescence coulter (Micro beta triLux 1450, PerkinElmer, CT, USA). The RLU values of the cell treated with the extract and untreated with the extract, were compared with each other and the decrease of SEAP activity was regarded as the inhibition effect against HPV PVs.

Assay [2] concerns SK-OV-3 (human ovarian tumor). The assay is described as follows: SRB cytotoxicity test, SK-OV-3. The assay is classed as cell-based. The following applies: Homo sapiens, read-out: Cytotoxicity IC50, SK-OV-3. The protocol: (§1) To determine the cytotoxicity against human tumor cell line of the test samples prepared in Examples, following sulforhodamin B (SRB) bioassy test was performed according to the method disclosed in the literature (Skehan, P., et al., J. Natl. Cancer Inst., 82, 1990, 1107-1112).
(§2) Various human tumor cell lines, i.e., A-549 (human adenocarcinoma of lung, NCI), SK-OV-3 (human ovarian tumor, NCI), SK-MEL-2 (human malignant melanoma, NCI), HCT15 (human colon adenocarcinoma, NCI), MES-SA (human uterine carcinoma, NCI) and MES-SA/DX5 (multidrug resistant carcinoma subline of MES-SA, NCI) were used in the test.
(§3) The subcultured cell lines were detached from the surface of wall using by trypsin-EDTA solution and adjusted to various concentration of cell lines, i.e., 5×10^3 cells/well (A-549, HCT15), 1×10^4 cells/well (SK-MEL-2), 5×10^3 cells/well (SK-OV-3) in 96-well flat bottom microplate. The inoculated cell lines were incubated in CO2 incubator (MCO-20AIC, SANYO Electric Co., LTd.) to be attached on the bottom of incubator and the culture media was removed with aspirator. 6 logarithmic concentrations of the diluted test samples were added to each well containing cell line at 100 μl/well in a three fold dilution manner and the cell was incubated for 48 hours. The culture media in each well was removed and 100μ of 10% trichloroacetic acid was added thereto to be left alone at 4° C. for 1 hour and to fix the cells to the bottom of the plates. […] The cell plates were shaked with titer plate shaker (KOMA Orbital Shaker KE011, KOMABIOTech) for 10 mins to exude the staining solution and to determine the absorbance at 520 nm using by microplate spectrophotometer (Sunrise, TECAN).

Assay [3] concerns A-549 (human adenocarcinoma of lung). The assay is described as follows: SRB cytotoxicity test, A-549. Type of assay: cell-based. The following applies: Homo sapiens, read-out: Cytotoxicity IC50, A-549. The protocol: as §1, §2, §3
Background: The SRB assay estimates cell density from bound dye.

Assay [4] concerns HCT15 (human colon adenocarcinoma). The assay is described as follows: SRB cytotoxicity test, HCT15. The following applies: Homo sapiens, HCT-15, 48 h. The assay is classed as cell-based. The protocol:
as §1, §2, §3

The test system of assay [5] is HPV16 PVs. The assay is described as follows: Virus inhibition test (in vitro), SEAP activity of 293TT cells infected with HPV pseudovirion. The assay is classed as cell-based. Conditions: Human papillomavirus 16, read-out: inhibitory activity on HPV16 PVs.
Assay [6] deals with MES-SA/DX5 (multidrug resistant carcinoma subline of MES-SA). The assay is described as follows: SRB cytotoxicity test, MES-SA/DX5. Type of assay: cell-based, human. The following applies: Homo sapiens, MES-SA/Dx5, 48 h, read-out: Cytotoxicity IC50, MES-SA/DX5. The protocol:
as §1, §2, §3

The test system of assay [7] is MES-SA (human uterine carcinoma). The assay is described as follows: SRB cytotoxicity test, MES-SA. Type of assay: cell-based. The following applies: Homo sapiens, MES-SA, 48 h. The protocol:
as §1, §2, §3

Assay [8] has as its system SK-MEL-2 (human malignant melanoma). The assay is described as follows: SRB cytotoxicity test, SK-MEL-2. The following applies: Homo sapiens, read-out: Cytotoxicity IC50, SK-MEL-2. The assay is classed as cell-based. Here is the method: as §1, §2, §3
The test system of a further assay is HCT15/CL02. The assay is described as follows: SRB cytotoxicity test, HCT15/CL02. Type of assay: cell-based, human. The following applies: Homo sapiens, HCT-15; Table 4, 48 hours. Here is the method: To determine the cytotoxicity against human tumor cell line of the test samples prepared in Examples, following sulforhodamin B (SRB) bioassy test was performed according to the method disclosed in the literature (Skehan, P., et al., J. Natl. […] The inoculated cell lines were incubated in CO2 incubator (MCO-20AIC, SANYO Electric Co., LTd.) to be attached on the bottom of incubator and the culture media was removed with aspirator. 6 logarithmic concentrations of the diluted test samples were added to each well containing cell line at 100 μl/well in a three fold dilution manner and the cell was incubated for 48 hours. […] The cell plates were shaked with titer plate shaker (KOMA Orbital Shaker KE011, KOMABIOTech) for 10 mins to exude the staining solution and to determine the absorbance at 520 nm using by microplate spectrophotometer (Sunrise, TECAN).

With `C=C[C@]1(C)C=C2CC[C@@H]3[C@](C)(CCC[C@@]3(C)C(=O)O)[C@H]2CC1` [compound (j), sandaracopimaric acid], in the assay with HPV16 PVs [1], the inhibition at 50 µg/mL was in the range of 70 to 80%. The IC50 in [2] (SK-OV-3, Table 3, 48 hours) was 12.1 µg/mL (≈ 40.1 µM); in assay [3] (A549, Table 3, 48 hours) it was 13.6 µg/mL (≈ 45.1 µM); in assay [4] (Table 3, 48 hours, read-out: Cytotoxicity IC50, HCT15) it was 13.6 µg/mL (≈ 44.9 µM); in [6] it was 11.1 µg/mL (≈ 36.6 µM); in [7] (Table 3, 48 hours, read-out: Cytotoxicity IC50, MES-SA) it was 10.4 µg/mL (≈ 34.6 µM); in assay [8] (SK-MEL-2, Table 3, 48 hours) it was 11.2 µg/mL (≈ 36.9 µM). The inhibition at 5 µg/mL with HPV16 PVs [5] is around 50%.
For `CC(C)c1ccc2c(c1)CC[C@H]1[C@](C)(C(=O)O)CCC[C@]21C` [compound (i), dehydroabietic acid], the inhibition at 50 µg/mL with HPV16 PVs [1] lay in the range of 70 to 80%. The IC50 in assay [2] (SK-OV-3, 48 h) stood at 17.3 µg/mL (≈ 57.5 µM); in assay [3] (A549, 48 h), 13.4 µg/mL (≈ 44.7 µM); in assay [4] (read-out: Cytotoxicity IC50, HCT15), 15.7 µg/mL (≈ 52.2 µM); in assay [6], 12 µg/mL (≈ 40 µM); in assay [7] (read-out: Cytotoxicity IC50, MES-SA) it was 10.3 µg/mL (≈ 34.4 µM); in [8] (SK-MEL-2, 48 h) it was 13 µg/mL (≈ 43.3 µM). Besides, the inhibition at 5 µg/mL in the assay with HPV16 PVs [5] was around 50%.
With `COc1cccc2c1C(=O)c1c(O)c3c(c(O)c1C2=O)C[C@@](O)(C(=O)CO)C[C@@H]3O[C@H]1C[C@H](N)[C@H](O)[C@H](C)O1` [doxorubicin, reference compound], the IC50 in [2] (SK-OV-3, 48 h) was determined as 0.0104 µg/mL (≈ 0.0191 µM); in [3] (A549, 48 h), 0.0072 µg/mL (≈ 0.0132 µM); in [4] (read-out: Cytotoxicity IC50, HCT15, Table 3, 48 hours), 0.0833 µg/mL (≈ 0.153 µM); in assay [4] (read-out: Cytotoxicity IC50, HCT15, Table 4, 48 hours), 0.016 µg/mL (≈ 0.0294 µM); with HCT15/CL02 it was 2.11 µg/mL (≈ 3.88 µM); in [6] (Table 1, extract and solvent fractions, 48 hours) it was 0.412 µg/mL (≈ 0.758 µM). For the same compound, the IC50 in assay [6] (Table 2, purified extracts, 48 hours) came out at 0.412 µg/mL (≈ 0.758 µM); in [6] (Table 3, 48 hours) it was 1.45 µg/mL (≈ 2.67 µM); in [6] (Table 4, 48 hours), 1.45 µg/mL (≈ 2.67 µM); in assay [7] (read-out: Cytotoxicity IC50, MES-SA, Table 1, extract and solvent fractions, 48 hours), 0.0002 µg/mL (≈ 0.000368 µM); in [7] (read-out: Cytotoxicity IC50, MES-SA, Table 2, purified extracts, 48 hours) it was 0.0002 µg/mL (≈ 0.000368 µM); in [7] (read-out: Cytotoxicity IC50, MES-SA, Table 3, 48 hours), 0.0051 µg/mL (≈ 0.00938 µM). Also, the IC50 is 0.0051 µg/mL (≈ 0.00938 µM) in assay [7] (read-out: Cytotoxicity IC50, MES-SA, Table 4, 48 hours) and 0.0012 µg/mL (≈ 0.00221 µM) in [8] (SK-MEL-2, 48 h).
